This is an account of results in patent publication US6169104A, “Di-aryl ethers and their derivatives as anti-cancer agents” (Large Scale Biology Corporation, priority 1998, dated 2001).

Molecules are shown by their SMILES.

Experiment [1] deals with angiogenesis induced by hFGF-B in the CAM. Nature of the experiment: Chick chorioallantoic membrane (CAM) assay, 14C-proline incorporation into collagenous protein. The class given is in vivo, chick embryo. The settings on record: for effect in the CAM assay: summary of the two experiments. Here is the method: BTO-964 [methyl 3,5-diiodo-4(4'-methoxyphenoxy) benzaldehyde], and BTO-967 [methyl 3,5-diiodo-4(4'-methoxyphenoxy)-thiobenzoate] were tested in the CAm assay. The endpoint of the CAM assay was a quantiative determination of basement membrane biosynthesis by measuring the incorporation of ^14 C-proline into Type IV collagenous protein.
The CAM assay involves the development of live chick embryos in Petri dishes under special sterile conditions. Therefore, only limited numbers of embryos can be used for evaluation of compounds in a single experiment. BTO-964 and BTO-967 was tested in separate assays. A known angiogenesis inhibitor, 2-methoxyestradiol (2-ME), was used as the positive control, and human fibroblast growth factor (hFGF) was used to induce angiogenesis in the CAM.
For testing, a minimum amount of acetone-methanol (1:1) was added to the test compounds for sterilization. The acetone-methanol mixture was then evaporated to dryness in a sterile hood. The compounds were dissolved in dimethyl sulfoxide (DMSO) first and then diluted with saline containing methylcellulose. The final concentrations were 2% DMSO and 0.5% methylcellulose. all test solutions were added to each CAM in […] aliquots.
Fresh fertile eggs were incubated for three days in a standard egg incubator. On Day 3, eggs were cracked under sterile conditions and embryos were placed in 20×100 mm plastic Petri dishes and cultivated at 37° C. in an embryo incubator with a water reservoir on the bottom shelf. Air was continuously bubbled into the water reservoir by using a small pump so that the humidity in the incubator was kept constant. Observations were made daily to ensure that all embryos were healthy. Dead or unhealthy embryos were removed from the incubator immediately to avoid contamination. On Day 9, a sterile silicone ring cup was placed on each CAM and 0.5 mCi of ^14 C-proline with or without the test compound plus 2.5 ng of hFGF dissolved in saline containing 0.5% methylcellulose was delivered into each ring cup in a sterile hood. 2-ME was tested in parallel to serve as a reference compound. After addition of test materials, the embryos were returned to the incubator and cultivation continued. On Day 12, all embryos were transferred to a cold room at 4-10° C.
Using the procedure outlined in Maragoudakis, et al., (1989) J. Pharm. Exp. Ther. 251:679-682, the embryos were placed on ice and a piece of CAM 10 mm in diameter was cut off under each ring cup and placed in a separate tube. To each tube was added 1.0 ml of phosphate-buffered saline (PBS, pH 7.3) containing 0.11 mg cycloheximide and 0.17 mg dipyridyl. The tubes were placed in a boiling water bath for 10 min and then cooled to room temperature. The PBS in each tube was discarded after centrifugation at 3000×G for 10 min. The CAM residue was washed once with 3 ml of 15% TCA and then three times with 3 ml of 5% TCA. Centrifugation was carried out as described above between each washing. At this point all non-protein bound radioactivity was removed, and the CAM containing the newly synthesized ^14 C-collagenous protein was suspended in 0.9 ml of 0.1 N NaOH and 1.1 ml of HEPES buffer at pH 7.4. The pH of the sample was neutralized with 0.8 N HCl, using phenol red as indicator.
To digest the ^14 C-collagenous protein, 7.5 units of collagenase and 500 nmol of calcium chloride in […] of HEPES buffer was added to the above samples, and mixtures were incubated at 37° C. for 4 h. The reaction was stopped by adding 1.0 ml of 20% TCA containing 5 mg of tannic acid into each tube. After vortex mixing, the samples were centrifuged at 3000×G for 10 min. An aliquot of the clear supernatant was taken for scintillation counting to quantitate the radiolabeled tripeptides corresponding to basement membrane collagen and other collagenous materials synthesized by the CAM from ^14 C-proline. The CAM pellets in each tube were solubilized in 0.5 ml of 1.0 N NaOH by boiling in a water bath for 5 min. […]

For experiment [2], the system named is met-1 mouse mammary tumors. Nature of the experiment: In vivo efficacy against met-1 mouse mammary tumors. Here is the method: Mammary fat pads of Balb/c immunodeficient (nude) mice were implanted with 1 mm^3 of mammary tumor tissue. These mammary tumors originated from the met-1 mouse mammary tumor cell line and have been propagated by passaging in vivo. When palpable tumors appeared, animals were subdivided into various treatment groups and treated daily with intraperitoneal injections of control vehicle, BTO-967 (50 mg/kg), or BTO-964 (50 mg/kg). A group of untreated control animals was included in the study, because agents used in the vehicle for these test articles (DMSO/ethanol/CremophorEL/PEG 400, 1: 0.5 : 0.5: 6) were themselves found to have cytotoxic activity. Twice weekly, the volumes of the tumors in each animal in each group were measured to gather information on tumor growth (volume) as a function of type of treatment, dose, and time.

Broadly, the % Inhibition is how much of the control response was suppressed. High values mean a response far below the control, low ones a response near the control. For the compound `COC(=S)c1cc(I)c(Oc2ccc(OC)cc2)c(I)c1` [BTO-967, methyl 3,5-diiodo-4-(4'-methoxyphenoxy)thiobenzoate], the “% Inhibition” value amounted to 13% in experiment [1] (8.3 μg/CAM, BTO-967 experiment); 3% in experiment [1] (25 μg/CAM, BTO-967 experiment); 11% in experiment [1] (75 μg/CAM, BTO-967 experiment). In addition, the “14C-Proline Incorporated into Collagenous Protein (cpm/mg protein) (mean ± S.E.)” value in experiment [1] (8.3 μg/CAM, BTO-967 experiment, control 6300 ± 696) worked out at 5222 ± 692 cpm/mg_protein; in experiment [1] (25 μg/CAM, BTO-967 experiment, control 6300 ± 696), 6165 ± 1288 cpm/mg_protein; in experiment [1] (75 μg/CAM, BTO-967 experiment, control 6300 ± 696), 5581 ± 1182 cpm/mg_protein. The “effect in the CAM assay” value in experiment [1] was “antiangiogenic effect”.
As to `COc1ccc(Oc2c(I)cc(C=O)cc2I)cc1` [BTO-964, 3,5-Diiodo-4-(4'-methoxyphenoxy)benzadehyde], the “response of Met-1 tumors to treatment” value in experiment [2] (50 mg/kg daily i.p.) is recorded as “positive response”. Moreover, the “Tumor Volume (mm^3)” value in experiment [2] (50 mg/kg daily intraperitoneal, 4 weeks post initiation of treatment, mean ± SEM, vehicle 1238 ± 170, none 1570 ± 219) is listed as 876±126 mm^3. Further, the “% Inhibition” value in experiment [1] (8.3 μg/CAM, BTO-964 experiment) is recorded as 15%; in experiment [1] (25 μg/CAM, BTO-964 experiment), 27%; in experiment [1] (75 μg/CAM, BTO-964 experiment), 10%. In addition, the “14C-Proline Incorporated into Collagenous Protein (cpm/mg protein) (mean ± S.E.)” value in experiment [1] (8.3 μg/CAM, BTO-964 experiment, control 11200 ± 829) stood at 9526 ± 1492 cpm/mg_protein; in experiment [1] (25 μg/CAM, BTO-964 experiment, control 11200 ± 829), 8121 ± 1096 cpm/mg_protein; in experiment [1] (75 μg/CAM, BTO-964 experiment, control 11200 ± 829) it was 10076 ± 928 cpm/mg_protein. Besides, in experiment [1], the “effect in the CAM assay” value is “antiangiogenic effect”.
